Experimental data published in article PMC11291853, “Haemodynamic, hormonal and renal actions of osteocrin in normal sheep” (Experimental Physiology, 2024).
Several values for one entry are separate records, joined by “and”; a condition that tells them apart may be missing. Equal values may be shown once. Where no end group is shown, it is not given here.

Legend:
normal conscious sheep [1] = test: Plasma renin activity and aldosterone responses to stepped OSTN infusion; format: in vivo; settings: sheep n = 8, mean ± SD
Procedure: (§1) Sheep received I.V. infusions of increasing doses of ovine proOSTN (83–133), the putative 51 aa circulating peptide (at 2.5, 25 and 250 pmol/kg/min for 1 h each; Mimotopes, Melbourne, Victoria, Australia) and a vehicle control (0.9% saline) administered on separate days, ≥1 day apart, in a balanced random order.
(§2) Venous blood samples were obtained at 30 min and immediately preceding commencement of the first infusion (baseline) and at 30 min intervals for the duration of the study day. Samples were taken into tubes on ice, centrifuged at 4°C and stored at −20°C before assaying. Following extraction over C18 SepPac cartridges (Waters Corp., Milford, MA, USA), plasma concentrations of cGMP (Charles et al., [1990]), ANP (Charles et al., [1990]), BNP (Pemberton et al., [1997]), CNP (Charles et al., [1995]) and N‐terminal proCNP (NTproCNP) (Wilson et al., [2015]), were measured by radioimmunoassay (RIA) as previously described. Non‐extracted plasma renin activity (PRA) (Dunn & Espiner, [1976]) and aldosterone (Lun et al., [1983]) were measured as previously described. Cyclic AMP was measured by enzyme‐linked immunosorbent assay (catalogue no. ADI‐900‐163; Enzo Life Sciences, Farmingdale, NY, USA). For each analyte, all samples from individual animals were measured in the same assay to avoid interassay variability. Haematocrit concentrations were measured with every blood sample taken.

normal conscious sheep [2] = test: Plasma ANP, BNP, CNP and NTproCNP responses to stepped OSTN infusion (RIA); format: in vivo; settings: for Plasma ANP / Plasma BNP / Plasma CNP: sheep n = 8, mean ± SD
Procedure: as §1, §2

normal conscious sheep [3] = test: Plasma cGMP (RIA) and cAMP (ELISA) responses to stepped OSTN infusion; format: in vivo; settings: sheep n = 8, mean ± SD
Procedure: as §1, §2

[4] = Plasma OSTN concentration, metabolic clearance rate and half-life during and after stepped I.V. infusion (OSTN RIA); format: in vivo, sheep; settings: mean ± SD; for level at time molar at 1 h: sheep, sheep n = 8, RIA
Procedure: as §1, §2
Osteocrin concentrations in the infusate were measured to calculate the infusion rate and metabolic clearance rate (MCR) of the peptide (MCR = infusion rate/plateau − baseline level).
Human proOSTN (83–112) […] was iodinated using 0.5 mCi Na^125I in the presence of […] chloramine‐T in […] phosphate buffer, pH 7.5, for 20 s, followed by the addition of 50 mg cysteine, 25 mg BSA and 20 mg KI in […] buffer. The resulting mixture was loaded onto a 10 cm RP300 Brownlee column and eluted with a gradient from 0% to 60% acetonitrile in 49 mmol/L KH2PO4 buffer, pH 2.9, over 30 min at 1 mL/min, collecting 0.5 mL fractions. The fraction containing the major peak of radioactive [^125I]‐proOSTN (83–112) was used in the RIA. Peptide standards were made from synthetic human proOSTN (83–133) taking into account the purity data supplied. All standards, sample extracts, antisera and tracer solutions were made up in pH 7.4 assay buffer (0.1% BSA in 0.1 M phosphate buffer). Fifty microlitres of sample extract or 1−1000 pmol/L of human proOSTN (83–133) standard (all in duplicate) were incubated with 50 μL antiserum H‐028‐68 (Phoenix Pharmaceuticals) at a dilution of 1:20,000 for 24 h at 4°C, followed by addition of 50 μL of tracer solution [^125I]‐proOSTN (83–112) containing 3000 cpm for an additional 24 h at 4°C. Bound and free [^125I]‐proOSTN (83–112) were separated by a solid‐phase second antibody method (Sac‐Cell, Donkey‐Anti Rabbit; IDS, UK), and the radioactivity in the bound [^125I]‐proOSTN (83–112) pellet was measured in a PerkinElmer Wizard2 10‐Detector Gamma Counter. Ovine concentrations of OSTN were extrapolated from the human standards, taking into account ovine proOSTN (83–133) cross‐reactivity. Ovine proOSTN (83–112) cross‐reactivity in the ANP, BNP and CNP RIA was <0.005%.

[5] = 1 h, end of OSTN 2.5 pmol/kg/min I.V.
[6] = 2 h, end of OSTN 25 pmol/kg/min I.V.
[7] = 3 h, end of OSTN 250 pmol/kg/min I.V.
[8] = 4 h, 1 h after end of infusions
[9] = 5 h, 2 h after end of infusions
[10] = end of 60 min OSTN infusion 2.5 pmol/kg/min
[11] = end of 60 min OSTN infusion 25 pmol/kg/min
[12] = end of 60 min OSTN infusion 250 pmol/kg/min

half-life ([4]; Coopworth, plasma, iv, normal sheep, after end of 250 pmol/kg/min infusion, samples at 1-15 min, read-out: Osteocrin plasma half-life): 5.7 ± 1.8 min
level at time molar at 1 h ([4]; Coopworth, plasma, iv, 2.5 pmol/kg/min, end of 60 min I.V. infusion at 2.5 pmol/kg/min): 0.0287 ± 0.008 nM
level at time molar at 1 h ([4]; Coopworth, plasma, iv, 25 pmol/kg/min, end of 60 min I.V. infusion at 25 pmol/kg/min): 0.48 ± 0.195 nM
level at time molar at 1 h ([4]; Coopworth, plasma, iv, 250 pmol/kg/min, end of 60 min I.V. infusion at 250 pmol/kg/min): 6.09 ± 0.75 nM
Osteocrin plasma half-life ([4]; normal sheep, after end of 250 pmol/kg/min infusion, samples at 1-15 min): ~6 min
Sequence: SFSGFGSPLDRLSAGSVSHKGKQRKVVDHPKRRFGIPMDRIGRNRLSNSRG [OSTN]
Plasma aldosterone (normal conscious sheep [1]; [5]): 199 ± 156 pmol/L
Plasma renin activity (normal conscious sheep [1]; [5]): 0.153 ± 0.070 nmol/L/h
Plasma aldosterone (normal conscious sheep [1]; [6]): 176 ± 137 pmol/L
Plasma renin activity (normal conscious sheep [1]; [6]): 0.153 ± 0.065 nmol/L/h
Plasma aldosterone (normal conscious sheep [1]; [7]): 167 ± 157 pmol/L
Plasma renin activity (normal conscious sheep [1]; [7]): 0.155 ± 0.075 nmol/L/h
Plasma aldosterone (normal conscious sheep [1]; [8]): 153 ± 142 pmol/L
Plasma renin activity (normal conscious sheep [1]; [8]): 0.186 ± 0.109 nmol/L/h
Plasma aldosterone (normal conscious sheep [1]; [9]): 192 ± 130 pmol/L
Plasma renin activity (normal conscious sheep [1]; [9]): 0.241 ± 0.181 nmol/L/h
Plasma ANP (normal conscious sheep [2]; [10]): 24.3 ± 10.1 pmol/L and 24 pmol/L
Plasma BNP (normal conscious sheep [2]; [10]): 2.0 ± 0.5 pmol/L
Plasma CNP (normal conscious sheep [2]; [10]): 1.21 ± 0.30 pmol/L and 1.2 pmol/L
Plasma ANP (normal conscious sheep [2]; [11]): 27.6 ± 10.2 pmol/L
Plasma BNP (normal conscious sheep [2]; [11]): 3.1 ± 0.9 pmol/L
Plasma CNP (normal conscious sheep [2]; [11]): 2.13 ± 0.50 pmol/L
Plasma ANP (normal conscious sheep [2]; [12]): 33.0 ± 14.2 pmol/L
Plasma BNP (normal conscious sheep [2]; [12]): 3.9 ± 2.3 pmol/L
Plasma CNP (normal conscious sheep [2]; [12]): 3.81 ± 1.30 pmol/L
Plasma NTproCNP (normal conscious sheep [2]; stepped OSTN infusions 2.5, 25, 250 pmol/kg/min vs vehicle, P = 0.064): no significant effect
Plasma cAMP (normal conscious sheep [3]; [5]): 11.5 ± 4.8 pmol/L
Plasma cAMP (normal conscious sheep [3]; [6]): 11.6 ± 3.0 pmol/L
Plasma cAMP (normal conscious sheep [3]; [7]): 12.9 ± 6.5 pmol/L
Plasma cAMP (normal conscious sheep [3]; [8]): 10.4 ± 7.1 pmol/L
Plasma cAMP (normal conscious sheep [3]; [9]): 10.7 ± 6.1 pmol/L
Plasma cGMP (normal conscious sheep [3]; [10]): 11.2 ± 5.1 nmol/L
Plasma cGMP (normal conscious sheep [3]; [11]): 19.0 ± 11.0 nmol/L
Plasma cGMP (normal conscious sheep [3]; [12]): 23.1 ± 9.7 nmol/L
